Source: patent US8383624B2 (Abbott Laboratories, priority 2009, dated 2013)

Molecular target: T1, Cdc7 (BEV coexpressed huCDC7/DBF4) (Homo sapiens, UniProt O00311)
T1 construct: made in house; host or cells: baculovirus expression vector (BEV) system
Assay: Cdc7 enzyme inhibition assay ([33P]-ATP, biotinylated peptide substrate, FlashPlate)
Assay type: biochemical
Description: Cdc7 (BEV coexpressed huCDC7/DBF4) is prepared internally. Cdc7 assays are conducted as follows with final concentrations as listed. In 384-well v-bottom polypropylene plates, 6 L compound (2% DMSO), is mixed with 6 µL of Cdc7 (2 μg/mL), and Jerini peptide substrate A-All (biotin-C6linker-TPSDSLIYDDGLS) (2 μM), followed by immediate initiation with 6 L […] (1 μM, 20 mCi/μmol) using a reaction buffer comprising 25 mM HEPES, pH 7.5, 1 mM DTT, 10 mM MgCl2, 100 μM Na3VO4, 0.075 mg/ml Triton X-100. Reactions are quenched after 1 hr by the addition of 90 L stop buffer (50 mM EDTA, 2M NaCl). 85 μL of the stopped reactions are transferred to 384-well streptavidin-coated plates (FlashPlate Plus, Perkin Elmer), incubated 30 minutes at room temperature and washed 3 times with 0.05% Tween-20/PBS using an ELX-405 automated plate washer (BioTek), and counted on a TopCount Scintillation Plate Reader (Packard). IC50 values are determined via non-linear regression fitting of enzyme inhibition data and corresponding Ki values are generated assuming ATP-competitive (equilibrium) inhibition and using the experimentally determined apparent ATP Km of 0.7 μM (as determined using the above assay condition, but varying ATP). Table 1 depicts enzyme inhibition data (Ki) for exemplary compounds. In Table 1, “A” represents a Ki of less than 10 nM, “B” represents a Ki of between 10 nM and 100 nM, and “C” represents a Ki of greater than 100 nM.
Table 2 depicts enzyme inhibition data (Ki) for examples 27-43 using the same assay as example 26. In Table 2, “A” represents a Ki of less than 10 nM, “B” represents a Ki of between 10 nM and 100 nM, and “C” represents a Ki of greater than 100 nM.

[1] = Table 1, Ki from IC50 assuming ATP-competitive inhibition, apparent ATP Km 0.7 μM, 1 μM ATP
[2] = Table 2, same assay as example 26

T1 sequence (O00311 whole entry): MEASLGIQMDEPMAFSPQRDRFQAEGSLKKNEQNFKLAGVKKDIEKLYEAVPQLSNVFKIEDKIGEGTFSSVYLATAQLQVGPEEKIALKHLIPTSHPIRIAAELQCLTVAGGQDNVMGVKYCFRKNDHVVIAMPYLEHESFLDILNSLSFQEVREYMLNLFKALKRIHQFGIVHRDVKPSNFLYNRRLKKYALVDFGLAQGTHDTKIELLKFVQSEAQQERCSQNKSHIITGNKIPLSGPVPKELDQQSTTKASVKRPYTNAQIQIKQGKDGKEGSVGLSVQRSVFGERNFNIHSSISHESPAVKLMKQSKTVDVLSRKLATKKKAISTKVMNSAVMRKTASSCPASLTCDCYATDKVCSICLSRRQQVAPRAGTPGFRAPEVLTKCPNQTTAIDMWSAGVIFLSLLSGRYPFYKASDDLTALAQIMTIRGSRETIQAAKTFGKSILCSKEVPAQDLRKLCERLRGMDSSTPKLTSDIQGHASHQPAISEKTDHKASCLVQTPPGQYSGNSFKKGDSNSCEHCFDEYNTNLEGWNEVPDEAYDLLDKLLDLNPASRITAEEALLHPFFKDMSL
T1 sequence (Q9UBU7 whole entry partner): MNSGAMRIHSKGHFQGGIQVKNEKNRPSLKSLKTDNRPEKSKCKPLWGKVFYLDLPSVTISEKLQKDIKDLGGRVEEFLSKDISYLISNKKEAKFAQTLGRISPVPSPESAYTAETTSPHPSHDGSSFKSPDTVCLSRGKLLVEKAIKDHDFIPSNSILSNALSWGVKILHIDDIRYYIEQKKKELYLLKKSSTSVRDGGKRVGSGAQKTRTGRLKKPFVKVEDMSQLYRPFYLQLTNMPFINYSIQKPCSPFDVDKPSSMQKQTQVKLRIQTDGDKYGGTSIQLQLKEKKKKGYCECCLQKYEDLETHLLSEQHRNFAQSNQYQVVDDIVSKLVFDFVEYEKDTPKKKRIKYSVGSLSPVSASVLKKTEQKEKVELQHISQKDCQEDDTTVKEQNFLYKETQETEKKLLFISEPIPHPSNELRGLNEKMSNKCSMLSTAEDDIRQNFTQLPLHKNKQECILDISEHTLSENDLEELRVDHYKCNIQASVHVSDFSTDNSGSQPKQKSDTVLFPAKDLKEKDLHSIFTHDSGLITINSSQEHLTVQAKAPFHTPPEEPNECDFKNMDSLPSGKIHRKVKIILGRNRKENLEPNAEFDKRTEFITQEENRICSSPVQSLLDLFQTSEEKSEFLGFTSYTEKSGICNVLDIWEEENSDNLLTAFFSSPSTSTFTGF

| Ki [1] [nM] | Ki [2] [nM] | Compound |
| --- | --- | --- |
| < 10 |  | O=C1CCC(C(=O)N[C@H]2CC[C@H](Nc3cc(-c4c[nH]c5nccnc45)cc(Cl)n3)CC2)N1 (relative stereo) [Example 20, N-(trans 4-(6-chloro-4-(5H-pyrrolo[3,2-b]pyrazin-7-yl)pyridin-2-ylamino)cyclohexyl)-5-oxopyrrolidine-2-carboxamide] |
|  | < 10 | CCN1CCC(C(=O)N[C@H]2CC[C@H](Nc3cc(-c4c[nH]c5nccnc45)cc(Cl)n3)CC2)C1 (relative stereo) [Example 29, N-(trans-4-{[6-chloro-4-(5H-pyrrolo[2,3-b]pyrazin-7-yl)pyridin-2-yl]amino}cyclohexyl)-1-ethylpyrrolidine-3-carboxamide] |
|  | < 10 | C[C@@H](C(=O)N[C@H]1CC[C@H](Nc2cc(-c3c[nH]c4nccnc34)cc(Cl)n2)CC1)N(C)C (relative stereo) [Example 32, N-(trans-4-{[6-chloro-4-(5H-pyrrolo[2,3-b]pyrazin-7-yl)pyridin-2-yl]amino}cyclohexyl)-N^2,N^2-dimethylalaninamide] |
| < 10 |  | Clc1cc(-c2c[nH]c3nccnc23)cc(NC2CCCCC2)n1 [Example 1, 6-chloro-N-cyclohexyl-4-(5H-pyrrolo[3,2-b]pyrazin-7-yl)pyridin-2-amine] |
| < 10 |  | O[C@H]1CC[C@H](Nc2cc(-c3c[nH]c4nccnc34)cc(Cl)n2)CC1 [Example 2, Trans 4-(6-chloro-4-(5H-pyrrolo[3,2-b]pyrazin-7-yl)pyridin-2-ylamino)cyclohexanol] |
| < 10 |  | Clc1cc(-c2c[nH]c3nccnc23)cc(NC2CCCNC2)n1 (stereo not shown) [Example 3, 6-chloro-N-(piperidin-3-yl)-4-(5H-pyrrolo[2,3-b]pyrazin-7-yl)pyridin-2-amine] |
| < 10 |  | CCN1CCCC(Nc2cc(-c3c[nH]c4nccnc34)cc(Cl)n2)C1 (stereo not shown) [Example 4, 6-chloro-N-(1-ethylpiperidin-3-yl)-4-(5H-pyrrolo[2,3-b]pyrazin-7-yl)pyridin-2-amine] |
| < 10 |  | O=C(C1CC1)N1CCCC(Nc2cc(-c3c[nH]c4nccnc34)cc(Cl)n2)C1 (stereo not shown) [Example 5, (3-(6-chloro-4-(5H-pyrrolo[2,3-b]pyrazin-7-yl)pyridin-2-ylamino)piperidin-1-yl)(cyclopropyl)methanone] |
| < 10 |  | CS(=O)(=O)N1CCCC(Nc2cc(-c3c[nH]c4nccnc34)cc(Cl)n2)C1 (stereo not shown) [Example 6, 6-chloro-N-(1-(methylsulfonyl)piperidin-3-yl)-4-(5H-pyrrolo[2,3-b]pyrazin-7-yl)pyridin-2-amine] |
| < 10 |  | N[C@H]1CC[C@H](Nc2cc(-c3c[nH]c4nccnc34)cc(Cl)n2)CC1 [Example 7, Trans N^1-(6-chloro-4-(5H-pyrrolo[2,3-b]pyrazin-7-yl)pyridin-2-yl)cyclohexane-1,4-diamine] |
| < 10 |  | O=C(N[C@H]1CC[C@H](Nc2cc(-c3c[nH]c4nccnc34)cc(Cl)n2)CC1)C1CC1 [Example 8, N-(trans-4-(6-chloro-4-(5H-pyrrolo[2,3-b]pyrazin-7-yl)pyridin-2-ylamino)cyclohexyl)cyclopropanecarboxamide] |
| < 10 |  | CN(C)[C@H]1CC[C@H](Nc2cc(-c3c[nH]c4nccnc34)cc(Cl)n2)CC1 [Example 9, trans-N^1-(6-chloro-4-(5H-pyrrolo[2,3-b]pyrazin-7-yl)pyridin-2-yl)-N^4,N^4-dimethylcyclohexane-1,4-diamine] |
| < 10 |  | CS(=O)(=O)N1CCCC(CNc2cc(-c3c[nH]c4nccnc34)cc(Cl)n2)C1 (stereo not shown) [Example 10, 6-chloro-N-((1-(methylsulfonyl)piperidin-3-yl)methyl)-4-(5H-pyrrolo[2,3-b]pyrazin-7-yl)pyridin-2-amine] |
| < 10 |  | O=C(NC1CCCC(Nc2cc(-c3c[nH]c4nccnc34)cc(Cl)n2)C1)C1CC1 (stereo not shown) [Example 11, N-(3-(6-chloro-4-(5H-pyrrolo[2,3-b]pyrazin-7-yl)pyridin-2-ylamino)cyclohexyl)cyclopropanecarboxamide] |
| < 10 |  | CN(C)C1CCCC(Nc2cc(-c3c[nH]c4nccnc34)cc(Cl)n2)C1 (stereo not shown) [Example 12, N^1-(6-chloro-4-(5H-pyrrolo[2,3-b]pyrazin-7-yl)pyridin-2-yl)-N^3,N^3-dimethylcyclohexane-1,3-diamine] |
| < 10 |  | CS(=O)(=O)NC1CCCC(Nc2cc(-c3c[nH]c4nccnc34)cc(Cl)n2)C1 (stereo not shown) [Example 13, N-(3-(6-chloro-4-(5H-pyrrolo[2,3-b]pyrazin-7-yl)pyridin-2-ylamino)cyclohexyl)methanesulfonamide] |

| Ki [1] [nM] | Ki [2] [nM] | Compound |
| --- | --- | --- |
| < 10 |  | CCCCC(=O)Nc1cc(-c2c[nH]c3nccnc23)cc(Cl)n1 [Example 14, N-(6-chloro-4-(5H-pyrrolo[2,3-b]pyrazin-7-yl)pyridin-2-yl)pentanamide] |
| < 10 |  | O=C(Nc1cc(-c2c[nH]c3nccnc23)cc(Cl)n1)c1cccnc1 [Example 15, N-(6-chloro-4-(5H-pyrrolo[2,3-b]pyrazin-7-yl)pyridin-2-yl)nicotinamide] |
| < 10 |  | O=C(Nc1cc(-c2c[nH]c3nccnc23)cc(Cl)n1)C1CCNCC1 [Example 16, N-(6-chloro-4-(5H-pyrrolo[2,3-b]pyrazin-7-yl)pyridin-2-yl)piperidine-4-carboxamide] |
| 10 to 100 |  | O=C(Nc1cc(-c2c[nH]c3nccnc23)cc(Cl)n1)c1ccccc1 [Example 17, N-(6-chloro-4-(5H-pyrrolo[2,3-b]pyrazin-7-yl)pyridin-2-yl)benzamide] |
| < 10 |  | Nc1cc(-c2c[nH]c3nccnc23)cc(Cl)n1 [Example 18, 6-chloro-4-(5H-pyrrolo[2,3-b]pyrazin-7-yl)pyridin-2-amine] |
| < 10 |  | CC(C)(CN)CNc1cc(-c2c[nH]c3nccnc23)cc(Cl)n1 [Example 19, N^1-(6-chloro-4-(5H-pyrrolo[2,3-b]pyrazin-7-yl)pyridin-2-yl)-2,2-dimethylpropane-1,3-diamine] |
| > 100 |  | Clc1cc(-c2c[nH]c3nccnc23)nc(NC2CCCCC2)n1 [Example 21, 4-chloro-N-cyclohexyl-6-(5H-pyrrolo[3,2-b]pyrazin-7-yl)pyrimidin-2-amine] |
| < 10 |  | CN(C)CC(=O)NC1CCCC(Nc2cc(-c3c[nH]c4nccnc34)cc(Cl)n2)C1 (stereo not shown) [Example 23, N-(3-(6-chloro-4-(5H-pyrrolo[2,3-b]pyrazin-7-yl)pyridin-2-ylamino)cyclohexyl)-2-(dimethylamino)acetamide] |
| < 10 |  | O=S(=O)(NC1CCCC(Nc2cc(-c3c[nH]c4nccnc34)cc(Cl)n2)C1)c1ccco1 (stereo not shown) [Example 25, N-(3-(6-chloro-4-(5H-pyrrolo[2,3-b]pyrazin-7-yl)pyridin-2-ylamino)cyclohexyl)furan-2-sulfonamide] |
|  | < 10 | CN1CCCC(Nc2cc(-c3c[nH]c4nccnc34)cc(Cl)n2)C1 (stereo not shown) [Example 27, 6-chloro-N-(1-methylpiperidin-3-yl)-4-(5H-pyrrolo[2,3-b]pyrazin-7-yl)pyridin-2-amine] |
|  | < 10 | CN1CCCC(CNc2cc(-c3c[nH]c4nccnc34)cc(Cl)n2)C1 (stereo not shown) [Example 28, 6-chloro-N-[(1-methylpiperidin-3-yl)methyl]-4-(5H-pyrrolo[2,3-b]pyrazin-7-yl)pyridin-2-amine] |
|  | < 10 | O=C(N[C@H]1CC[C@H](Nc2cc(-c3c[nH]c4nccnc34)cc(Cl)n2)CC1)[C@@H]1CCN1 [Example 30, (2S)—N-(trans-4-{[6-chloro-4-(5H-pyrrolo[2,3-b]pyrazin-7-yl)pyridin-2-yl]amino}cyclohexyl)azetidine-2-carboxamide] |
|  | < 10 | O=C1CC(C(=O)N[C@H]2CC[C@H](Nc3cc(-c4c[nH]c5nccnc45)cc(Cl)n3)CC2)CC(=O)N1 [Example 31, N-(trans-4-{[6-chloro-4-(5H-pyrrolo[2,3-b]pyrazin-7-yl)pyridin-2-yl]amino}cyclohexyl)-2,6-dioxopiperidine-4-carboxamide] |
|  | < 10 | O[C@H]1CC[C@H](Nc2cc(-c3c[nH]c4ncc(Cl)nc34)cc(Cl)n2)CC1 [Example 33, trans 4-{[6-chloro-4-(2-chloro-5H-pyrrolo[2,3-b]pyrazin-7-yl)pyridin-2-yl]amino}cyclohexanol] |
|  | < 10 | O[C@H]1CC[C@H](Nc2cc(-c3c[nH]c4ncc(Br)nc34)cc(Cl)n2)CC1 [Example 34, trans 4-{[4-(2-bromo-5H-pyrrolo[2,3-b]pyrazin-7-yl)-6-chloropyridin-2-yl]amino}cyclohexanol] |
|  | < 10 | Clc1cc(-c2c[nH]c3ncc(Cl)nc23)cc(NC2CCCCC2)n1 [Example 35, 6-chloro-4-(2-chloro-5H-pyrrolo[2,3-b]pyrazin-7-yl)-N-cyclohexylpyridin-2-amine] |

| Compound | Ki [1] [nM] | Ki [2] [nM] |
| --- | --- | --- |
| CCn1cc(-c2cc(Cl)nc(N[C@H]3CC[C@H](NC(=O)C4CC4)CC3)c2)c2nccnc21 [Example 22] | > 100 |  |
| CCn1cc(-c2cc(Cl)nc(NC3CCCC(NC(=O)CN(C)C)C3)c2)c2nccnc21 (stereo not shown) [Example 24] | > 100 |  |
